Reference: patent US20240150339A1, “Compounds and Their Use as PDE4 Activators” (Mironid Limited, priority 2021, published 2024)

Tested on: m-IMCD3 cells
Assay: Inhibition of PGE2-stimulated in vitro cyst formation in 3D culture of m-IMCD3 cells
Assay type: cell-based, mouse
Conditions: Mus musculus, mIMCD3, 144 h; 10 μM test compound; mean cyst area (%) compared to 100% for (DMSO + PGE2) and 0% for DMSO control; 100 nM PGE2; 6 days; read-out: % Cyst area after incubation with 10 μM test compound
Description: HEK 293 and MDCK cells (Public Health England, Cell Culture Collections) were maintained in Dulbecco's Modified Eagle's Medium (DMEM) supplemented with 10% (v/v) fetal bovine serum (FBS) (Seralab), 2 mM L-glutamine and 100 U/ml penicillin streptomycin cocktail (ThermoFisher); termed complete media. Clonal HEK 293 cell lines were maintained in complete media supplemented with 0.6 mg/mL G418 (Enzo Life Sciences). Mouse inner medullary collecting duct (m-IMCD3) cells [American Type Culture Collection (ATCC)] were maintained in media consisting of DMEM/Hams F-12 50/50 Mix (DMEM F12; Corning) supplemented with penicillin streptomycin cocktail (100 U/ml) and FBS (10% v/v) (DMEM F12-10% FBS).
The mouse Inner Medullary Collecting Duct cell line (m-IMCD3) spontaneously forms cystic spheroids in 3D culture with a Type 1 collagen/Matrigel extracellular matrix. This process can be stimulated with agents which raise intracellular cAMP, such as PGE2, and is used as an in vitro model for the formation of cystic structures in the kidneys of patients with ADPKD.
Rat Collagen I (Fisher Scientific) is prepared on ice by neutralising with 1M NaOH and diluting with a 2×volume of DMEM/F12+10% FBS for coating plate (coating mix) and a 2.2 volume of DMEM/F12+10% FBS for cell plating (plating mix). This is mixed 1:1.1 with ice cold Matrigel (Corning) for coating plates (coating mix), and 1:0.95 with Matrigel for cell plating (plating mix).
The assay is conducted in the wells of a 96-well plate culture dish using a total volume of 130 μl of collagen/Matrigel/DMEM F12-10% FBS suspension in growth media for each matrix plug per individual well. Initially, 30 μl of collagen/Matrigel/DMEM F12-10% FBS (coating mix) is added into the well of a 96 well plate and the collagen is set to a gel by incubating at 37° C. for at least 15 minutes. A second layer of 100 μl collagen/Matrigel suspension (plating mix) containing m-IMCD3 cells (2.75×10^6 m-IMCD3 cells per 96-well plate) is layered over the coating mix and the collagen/Matrigel/cell mix again set to a gel by incubating at 37° C. Cell cultures are maintained at 37° C. in an atmosphere of 5% CO2, 95% air.
Between 18 and 24h after plating, test compound(s) as DMSO stock solutions [0.1% (v/v) final DMSO concentration] and PGE2 (100 nM final concentration) in DMEM F12-10% FBS are added in quadruplicate wells per condition. Media, togetherwith the test compound and PGE2 are replenished after 2 or 3 days. After 6 days of culture z stack images of the wells are captured using the Nikon Eclipse Ti2-E microscope. Nikon General Analysis software is used to measure the following parameters in each well: the mean cyst area, the number of cysts, and the total cyst area.
PDE4 long form activators inhibited in vitro cyst formation in m-IMCD3 cells. Data are shown in FIG. 2 and Table 5 as mean cyst area (%), compared to 100% for (DMSO+PGE2) and 0% for DMSO control.

| Structure (SMILES) | activity at 10 µM [%] |
| --- | --- |
| O=C(NC1CCOCC1)c1ccc2nc(C3CCNCC3)sc2c1 [Example 138, 2-(piperidin-4-yl)-N-(tetrahydro-2H-pyran-4-yl)benzo[d]thiazole-6-carboxamide] | 20 |
| CCN1CCC(c2nc3ccc(C(=O)NCc4ccncc4)cc3s2)CC1 [Example 275, 2-(1-ethylpiperidin-4-yl)-N-(pyridin-4-ylmethyl)benzo[d]thiazole-6-carboxamide] | -2 |
| Cc1ncccc1-c1nc2ccc(C(=O)NCc3ccc(F)cc3)cc2s1 [Example 2, N-(4-fluorobenzyl)-2-(2-methylpyridin-3-yl)benzo[d]thiazole-6-carboxamide] | -9 |
| COc1ccc(CNC(=O)c2ccc3nc(-c4cccnc4C)sc3c2)cc1 [Example 3, N-(4-methoxybenzyl)-2-(2-methylpyridin-3-yl)benzo[d]thiazole-6-carboxamide] | 23 |
| COc1ccc2c(c1)OCC[C@H]2NC(=O)c1ccc2nc(N3CCNCC3)sc2c1 [Example 93, (R)-N-(7-methoxychroman-4-yl)-2-(piperazin-1-yl)benzo[d]thiazole-6-carboxamide] | 9 |
| CCN1CCN(c2nc3ccc(C(=O)NC4CCCC4)cc3s2)CC1 [Example 81, N-cyclopentyl-2-(4-ethylpiperazin-1-yl)benzo[d]thiazole-6-carboxamide] | 7 |
| CC(C)N1CCN(c2nc3ccc(C(=O)N[C@H]4CCOc5ccccc54)cc3s2)CC1 [Example 74, (S)-N-(chroman-4-yl)-2-(4-isopropylpiperazin-1-yl)benzo[d]thiazole-6-carboxamide] | 8 |
| O=C(N[C@@H]1c2ccccc2C[C@H]1O)c1ccc2nc(C3CCNCC3)sc2c1 [Example 128, N-((1R,2R)-2-hydroxy-2,3-dihydro-1H-inden-1-yl)-2-(piperidin-4-yl)benzo[d]thiazole-6-carboxamide] | 3 |
| O=C(N[C@H]1CCc2ccccc21)c1ccc2nc(C3CCNCC3)sc2c1 [Example 127, (S)-N-(2,3-dihydro-1H-inden-1-yl)-2-(piperidin-4-yl)benzo[d]thiazole-6-carboxamide] | 13 |
| CCN1CCC(c2nc3ccc(C(=O)N[C@H]4CCc5ccccc54)c(C)c3s2)CC1 [Example 196, (S)-N-(2,3-dihydro-1H-inden-1-yl)-2-(1-ethylpiperidin-4-vy)-7-methylbenzo[d]thiazole-6-carboxamide] | 10 |
| O=C(NC1CCCC1)c1ccc2nc(N3CCCC4NCCC43)sc2c1 (stereo not shown) [Example 258, N-cyclopentyl-2-(octahydro-4H-pyrrolo[3,2-b]pyridin-4-yl)benzo[d]thiazole-6-carboxamide] | 11 |
| Cc1c(C(=O)N[C@H]2CCOc3ccccc32)ccc2nc(N3CCNCC3)sc12 [Example 219, (S)-N-(chroman-4-yl)-7-methyl-2-(piperazin-1-yl)benzo[d]thiazole-6-carboxamide] | 2 |
| CCN1CCN(c2nc3c(C)cc(C(=O)NC4CCOCC4)cc3s2)CC1 [Example 210, 2-(4-ethylpiperazin-1-yl)-4-methyl-N-(tetrahydro-2H-pyran-4-yl)benzo[d]thiazole-6-carboxamide] | 3 |
| CCc1ccc(-c2nc3ccc(C(=O)N[C@H]4CCOc5ccccc54)cc3s2)cn1 [Example 29, (S)-N-(chroman-4-yl)-2-(6-ethylpyridin-3-yl)benzo[d]thiazole-6-carboxamide] | 22 |
| CC(C)(C)N1CCN(c2nc3ccc(C(=O)N[C@H]4CCOc5ccccc54)cc3s2)CC1 [Example 75, (S)-2-(4-(tert-butyl)piperazin-1-yl)-N-(chroman-4-yl)benzo[d]thiazole-6-carboxamide] | -1 |
| Cc1ncccc1-c1nc2ccc(C(=O)N[C@H]3CCc4ccccc43)cc2s1 [Example 5, (S)-N-(2,3-dihydro-1H-inden-1-yl)-2-(2-methylpyridin-3-yl)benzo[d]thiazole-6-carboxamide] | 1 |
